Patent US4291024A, “Cytotoxic liponucleotide analogs” (priority 1980, dated 1981)
Structures can show the parent of a compound that is named as a salt.

Legend:
[1] = system: murine leukemic cells L5178Y; assay: Inhibition of reproduction of murine leukemic cells L5178Y by cytotoxic liponucleotide analogs - 72 hours; format: cell-based; conditions: for IC50: read-out: MOLAR CON[…] 50 PERCENT INHIBITION, 50% decrease in number of doublings vs untreated controls, read-out: MOLAR CONCENTRATION CAUSING 50 PERCENT INHIBITION
Description: The leukemic cells L5178Y were grown from an inoculum of 4×10^3 cells per ml for a period of 72 hours in the presence of different levels (10^-4 -10^-7 M) of drugs.

CMI-DTH reactions = assay: CMI-DTH reactions; format: in vivo, mouse
[2] = system: leukemia L5178Y ascites cells; assay: Survival time of mice bearing leukemia L5178Y ascites cells, Ia-11-diglyceride; format: in vivo, mouse; conditions: for AVERAGE SURVIVAL (DAYS ± S.E.): control 17.6 ± 0.2; for prolongation of survival times: mice bearing leukemia L5178Y cells
Description: Mice (10/group) were inoculated with L5178Y cells (5×10^6 cells/mouse) and drug injections were begun on the second day. The drug in a volume of 0.1 ml was injected intraperitioneally once a day for four consecutive days. Saline was administered to the controls. The percent change in body weight from the onset to the termination of therapy was used as an indication of drug toxicity.

[3] = system: human colon carcinoma HCT-15 cells; assay: Antitumor activity against human colon carcinoma in immunosuppressed mice; format: in vivo, mouse; conditions: for TUMOR WEIGHT: control 89.7 ± 4.9
Description: Male B6D2F1 mice (18-22 g, 4/group) were immunosuppressed with 0.25 ml subcutaneous injection of ATS on days -1,0,1,3 and 6. Human colon carcinoma cells (5.0×10^6 cells/mouse) were inoculated subcutaneously into an area slightly above the left inguinal region on day 0. The drug dissolved in saline to a volume of 0.1 ml was injected intraperitoneally once a day for four consecutive days. Saline was administered to the controls. The percent change in body weight from the onset to the day of weighing the tumor was used as an indication of drug toxicity.

[4] = system: mouse antisheep erythrocyte antibody-forming cells; assay: Suppression of IgM and IgG mouse antisheep erythrocyte antibody-forming cells (AFC); format: in vivo
leukemic cells L5178Y = assay: Animal antitumor activity of liponucleotides (leukemic cell kill in the peritoneal cavity); format: in vivo, mouse; conditions: for PERCENT SURVIVAL: L5178Y i.p., control 100
Description: The leukemic cells L5178Y (4×10^5 cells/mouse) were injected intraperitoneally on day 0. Drugs at various dosages (20 mg/kg, 40 mg/kg and 100 mg/kg) were injected on day 5 and incubated for 2 hours. At the end of the incubations, 5.0 ml of Fischer's medium containing 10% horse serum (FMS) was injected […].). After mixing, 1.0 ml aliquots were withdrawn and transferred to culture tubes containing 5.0 ml of FMS. Cells were centrifuged immediately, washed 2 xs and resuspended in 5.0 ml of FMS. Cell viability was determined by the dilute agar colony method.

[5] = system: murine leukemic cells L5178Y; assay: Inhibition of reproduction of murine leukemic cells L5178Y by liponucleotides - 2 hours (dilute agar colony method); format: cell-based; conditions: for viability at 100 µM / viability at 10 µM / viability at 1 µM / viability at 0.1 µM: Mus musculus, L5178Y, 2 hours, untreated control normalized to 100%, read-out: PERCENT SURVIVAL; for viability at 100 µM: 1 × 10^-4 M; for viability at 10 µM: 1 × 10^-5 M; for viability at 1 µM: 1 × 10^-6 M; for viability at 0.1 µM: 1 × 10^-7 M
Description: L5178Y cells (2×10^5 /ml) in the exponential phase of growth were incubated singly with drugs for a period of 2 hours at concentrations of […] to 1×10^-7 M. Cell viability was determined by the dilute agar colony method. Each observation represents the mean value of three experimentations with four replicates per experiment. A minimum of 200 colonies were counted for each group. The cloning efficiency of the untreated cells was approximately 75%; all values were normalized to 100%.

[6] = system: leukemia L5178Y ascites cells; assay: Survival time of mice bearing leukemia L5178Y ascites cells, Ia-11-dipalmitin; format: in vivo, mouse; conditions: for PER CENT CHANGE IN LIFE SPAN / AVERAGE SURVIVAL / PER CENT CHANGE IN WEIGHT: i.p. twice a day ×4 days; for AVERAGE SURVIVAL: control 15.0 ± 0.28; for PER CENT CHANGE IN WEIGHT: control -1.4
Description: Mice (10/group) were inoculated with L5178Y cells (5×10^6 cells/mouse) and drug injections were begun on the second day. The drug in a volume of 0.2 ml was injected intraperitoneally twice a day at a five-hour interval for four consecutive days. Distilled water was administered to the controls. The percent change in body weight from the onset to the termination of therapy was used as an indication of drug toxicity.

LD10 (lethality) = format: in vivo; conditions: ×4 regimen
[7] = 50 mg/kg/day×4, intraperitoneal
[8] = 30 mg/kg daily dosage (first 30 line)
[9] = 30 mg/kg daily dosage (second 30 line)

CCCCCCCCCCCCCCCC(=O)OCC(COP(=O)(O)OP(=O)(O)OC[C@H]1O[C@@H](n2ccc(N)nc2=O)[C@@H](O)[C@@H]1O)OC(=O)CCCCCCCCCCCCCCC (stereo partly shown)
IC50 ([1]; Mus musculus, L5178Y, 72 hours): 14 µM

1-Beta-D-Arabinofuranosylcytosine-5'-diphosphate-L-diglyceride Diammonium Salt [Ia-11-Diglyceride]
delay of peak DTH response (CMI-DTH reactions; 50 mg/kg, (day 4-7) or more): ≥ 3 days
immunostimulatory activity on DTH (CMI-DTH reactions; 50 mg/kg, later periods, judged by very late rising profile of response): may have immunostimulatory activity on DTH at later periods
% CHANGE IN LIFE SPAN ([2]; 12.5 mg/kg daily i.p. ×4 days): +29.6%
AVERAGE SURVIVAL (DAYS ± S.E.) ([2]; 12.5 mg/kg daily i.p. ×4 days): 22.0 ± 0.6 days
% CHANGE IN LIFE SPAN ([2]; 25.0 mg/kg daily i.p. ×4 days): +44.3%
AVERAGE SURVIVAL (DAYS ± S.E.) ([2]; 25.0 mg/kg daily i.p. ×4 days): 25.4 ± 1.1 days
% CHANGE IN LIFE SPAN ([2]; 50.0 mg/kg daily i.p. ×4 days): +93.2%
AVERAGE SURVIVAL (DAYS ± S.E.) ([2]; 50.0 mg/kg daily i.p. ×4 days): 34.0 ± 2.4 days
log cell kill ([2]; 50 mg/kg/day×4): 4 log
prolongation of survival times ([2]; 50 mg/kg/day×4): 93%
difference in antitumor activity in vivo vs Ia-11-dipalmitin ([2]; Table 4 compared with Table 5): significant difference in antitumor activity in vivo
in vivo activity relative to cytosine arabinoside ([2]; leukemia L5178Y in vivo (Table 4)): significantly more active than cytosine arabinoside
antitumor activity in culture relative to Ia-11-dipalmitin ([1]; in culture (Table 2)): superior activity
PER CENT OF CONTROL TUMOR WEIGHT ([3]; 25 mg/kg daily i.p. ×4 days): 68.4 ± 15.6 PER CENT
TUMOR WEIGHT ([3]; 25 mg/kg daily i.p. ×4 days): 61.3 ± 14.0 mg
PER CENT OF CONTROL TUMOR WEIGHT ([3]; 50 mg/kg daily i.p. ×4 days, *P 0.005 (1tailed "t" test)): 21.0 ± 13.5 PER CENT
TUMOR WEIGHT ([3]; 50 mg/kg daily i.p. ×4 days): 18.7 ± 12.0 mg
inhibition of tumor growth ([3]; 50 mg/kg/day×4, excised tumors weighed, vs non-treated control): 80%
IgG AFC/10^6 spleen cells [4, 7]: background levels
IgG AFC/spleen [4, 7]: background levels
IgM AFC/10^6 spleen cells [4, 7]: background levels
IgM AFC/spleen [4, 7]: background levels
suppression of IgM and IgG AFC relative to cytosine arabinoside "equivalent" ([4]; mouse, in vivo): more pronounced suppression

CCCCCCCCCCCCCCCC(=O)OCC(COP(=O)(O)OP(=O)(O)OC[C@H]1O[C@@H](n2ccc(N)nc2=O)[C@H](O)[C@@H]1O)OC(=O)CCCCCCCCCCCCCCC (mixture of isomers) [Ia-1-Dipalmitin, 1-Beta-D-Ribofuranosylcytosine-5'-Diphosphate-DL-1,2-Dipalmitin Diammonium Salt]
PERCENT SURVIVAL (leukemic cells L5178Y; 20 mg/kg on day 5, 2 hours): 57%
PERCENT SURVIVAL (leukemic cells L5178Y; 40 mg/kg on day 5, 2 hours): 54%
PERCENT SURVIVAL (leukemic cells L5178Y; 100 mg/kg on day 5, 2 hours): 43%
activity relative to the CLNA molecule containing the beta-D-arabinofuranosyl moiety (leukemic cells L5178Y; peritoneal cavity (Table 3)): activity comparable to the CLNA molecule
viability at 100 µM [5]: 65.7 ± 5.69%
viability at 10 µM [5]: 76.7 ± 6.66%
viability at 1 µM [5]: 94.7 ± 4.04%
viability at 0.1 µM [5]: 94.7 ± 5.03%
activity relative to the CLNA molecule containing the beta-D-arabinofuranosyl moiety ([5]; in culture (Table 1)): activity comparable to the CLNA molecule

CCCCCCCCCCCCCCCC(=O)OCC(COP(=O)(O)OP(=O)(O)OC[C@H]1O[C@@H](n2ccc(N)nc2=O)[C@@H](O)[C@@H]1O)OC(=O)CCCCCCCCCCCCCCC (mixture of isomers) [Ia-11-Dipalmitin, 1-Beta-D-Arabinofuranosylcytosine-5'-diphosphate-DL-1,2-dipalmitin Diammonium Salt]
PER CENT CHANGE IN LIFE SPAN [6, 8]: +24.0 PER CENT
AVERAGE SURVIVAL [6, 8]: 18.6 ± 0.22 days
PER CENT CHANGE IN WEIGHT [6, 8]: -5.0 PER CENT
PER CENT CHANGE IN LIFE SPAN [6, 9]: +32.0 PER CENT
AVERAGE SURVIVAL [6, 9]: 19.8 ± 0.82 days
PER CENT CHANGE IN WEIGHT [6, 9]: -5.86 PER CENT
PER CENT CHANGE IN LIFE SPAN ([6]; 50 mg/kg daily dosage): +37.3 PER CENT
AVERAGE SURVIVAL ([6]; 50 mg/kg daily dosage): 20.6 ± 0.76 days
PER CENT CHANGE IN WEIGHT ([6]; 50 mg/kg daily dosage): -3.5 PER CENT
in vivo activity relative to cytosine arabinoside ([6]; leukemia L5178Y in vivo (Table 5)): significantly more active than cytosine arabinoside
PERCENT SURVIVAL (leukemic cells L5178Y; 20 mg/kg on day 5, 2 hours): 61%
PERCENT SURVIVAL (leukemic cells L5178Y; 40 mg/kg on day 5, 2 hours): 58%
PERCENT SURVIVAL (leukemic cells L5178Y; 100 mg/kg on day 5, 2 hours): 43%
PERCENT INHIBITION AT 10^-4 M ([1]; 10^-4 M, 72 hours, listed as ara-CDP-dipalmitin, Diammonium Salt): less than 50%
inhibition at 100 µM ([1]; Mus musculus, L5178Y, 72 h, 10^-4 M, 72 hours, read-out: PERCENT INHIBITION AT 10^-4 M): 42%
viability at 100 µM [5]: 65 ± 1.73%
viability at 10 µM [5]: 84.3 ± 0.58%
viability at 1 µM [5]: 90 ± 4.58%
viability at 0.1 µM [5]: 94 ± 3%

Nc1ccn([C@@H]2O[C@H](COP(=O)(O)O)[C@@H](O)[C@@H]2O)c(=O)n1 [Cytosine Arabinoside 5'-Phosphate]
IC50 ([1]; Mus musculus, L5178Y, 72 hours): 0.27 µM
viability at 100 µM [5]: 54.8 ± 1.54%
viability at 10 µM [5]: 87.5 ± 5.18%
viability at 1 µM [5]: 93 ± 8.9%
viability at 0.1 µM [5]: 99 ± 5.21%

Nc1ccn([C@@H]2O[C@H](CO)[C@@H](O)[C@@H]2O)c(=O)n1 [Cytosine Arabinoside, cytosine arabinoside, reference compound]
suppression of CMI-DTH reactions (CMI-DTH reactions; 11 or 50 mg/kg): poorly suppressed
change in life spans as compared with control animals ([2]; 13 mg/kg×4 (dose "equivalent" to 50 mg of Ia-11-diglyceride by molecular weight), inferred): no change in life spans
% CHANGE IN LIFE SPAN ([2]; 50.0 mg/kg daily i.p. ×4 days): +17.6%
AVERAGE SURVIVAL (DAYS ± S.E.) ([2]; 50.0 mg/kg daily i.p. ×4 days): 20.7 ± 5.4 days
% CHANGE IN WEIGHT ([2]; 50.0 mg/kg daily i.p. ×4 days, control +0.66): -6.90%
prolongation of survival times ([2]; 50 mg/kg/day×4): 18%
LD10 (LD10 (lethality)): 71 mg/kg/day×4
inhibition of tumor cell growth ([3]; 200 mg/kg/day×4, determined by palpation): no inhibition of tumor cell growth
reduction of peak (day 4) number of IgM AFC/10^6 spleen cells ([4]; 11 mg/kg/day×4): 63%
reduction of peak (day 5) number of IgG AFC/10^6 spleen cells ([4]; 11 mg/kg/day×4): 55%
peak (day 5) number of IgG AFC/10^6 spleen cells ([4]; 11 mg/kg/day×4, from 494±123): 224±72 AFC/10^6 spleen cells
peak (day 4) number of IgM AFC/10^6 spleen cells ([4]; 11 mg/kg/day×4, from 495±130): 180±28 AFC/10^6 spleen cells
AFC ([4]; 50 mg/kg/day×4): background levels
